One data set deals with E. coli DH5α. The settings on record: DH5α, 18 h. The procedure, abridged:
(§1)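 Broth microdilution MIC per CLSI/EUCAST, adapted for cationic peptides, in Mueller-Hinton broth. Peptides at final 64 to 0.25 μM (2-fold series) with 5·10^4 bacteria/ml, 18 h at 37° C with shaking; growth read as absorbance at 600 nm.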

The next data set relates to Staphylococcus xylosus. The settings on record: 18 h. The gist of the method: as §1
Data set [1] deals with human histiocytic lymphoma cell line U937. Kind of data set: Cytotoxicity, direct membrane damage (CytoTox 96), LD50. To be noted: U937, two hours at 37° C., 0.25-64 μM. Format: cell-based. The gist of the method:
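Membrane damage in peptide-treated U937 cells measured as LDH release in culture supernatant (30 min substrate, room temperature, dark; absorbance 490 nm). Negative-control signal subtracted and normalized to permeabilization control. LD50 (μM) from sigmoidal fit of relative cytotoxicity (%) versus peptide concentration at 50%.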

Data set [2] shares this test system. Put plainly: Long-term growth inhibition, minimum toxic concentration (MTC). The procedure, abridged: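 U937 cells (5·10^4/ml final, RPMI 1640 + 2 mM glutamine + 10% FCS) exposed to peptides at 0.25–64 µM for 2 h at 37 °C, 5% CO2, then cultured at least four further days. MTC taken as the lowest peptide concentration giving complete growth suppression after four days.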

For a further data set, the system named is human cell line U937. Kind of data set: Mixed culture experiment (bacterially contaminated cell culture), eukaryotic cells. Format: cell-based. To be noted: 25 and 50 μM peptide, two hours, with S. xylosus. The protocol:
Destruction of the bacteria membranes by the antimicrobial peptides was investigated in a flow cytometric method with the help of a living/dead staining method in combination with an internal calibration and counting system. For this purpose, SYBR Green I (Sigma-Aldrich) was used as total staining and propidium iodide (Sigma-Aldrich) was used as contrast staining for membrane-damaged bacteria. […] The flow analysis was carried out on a Cytomics FC500 Instrument (Beckmann Coulter, Munich, Germany) equipped with an argon laser (488 nm) and the corresponding emission filters for SYBR Green I (525 nm) and propidium iodide (620 nm). […] Then, the mixture was incubated for 10 min in the dark at room temperature and then measured by flow cytometry. The number of events in each gate was captured and evaluated using the CXP Analyses 2.2 Software. The total number of living and dead bacteria was calculated. […]
The ability of the antimicrobial peptides to be used as a therapeutic active ingredient was investigated by reference to its selective antimicrobial properties in model mixed culture experiments. […] Then, the mixed cell cultures were stained and measured by flow cytometry as described in example 3, the measurement scale being adapted to the measurement of the larger eukaryotic cells.

No end group written: not given here.

For the sequence KKKIIIIIIKKK [O1], the “MIC E. coli” value against E. coli DH5α turned out to be 8 µM. Besides, the “MIC S. xylosus” value in the data set on Staphylococcus xylosus was determined as 0.5 µM. The “Toxicity LD50” value in data set [1] was more than 64 µM. The “Toxicity MTC (minimum toxic concentration)” value in data set [2] was more than 64 µM. Moreover, the “Effect on eukaryotic U937 cells in mixed culture” value in the data set with human cell line U937 is listed as “remain uninfluenced”.

Values taken from patent publication US10556926B2, “Synthetic artificial peptides with antimicrobial effect” (priority 2014, dated 2020).
